Experimental findings from patent EP2140864A2 (H. Lundbeck A/S, priority 2001, dated 2002) are described below.

The target of one assay is T1, human GAL3 receptor (Homo sapiens, UniProt O60755).
T1 construct: expressed in transfected cells
T1 sequence (O60755 1-368): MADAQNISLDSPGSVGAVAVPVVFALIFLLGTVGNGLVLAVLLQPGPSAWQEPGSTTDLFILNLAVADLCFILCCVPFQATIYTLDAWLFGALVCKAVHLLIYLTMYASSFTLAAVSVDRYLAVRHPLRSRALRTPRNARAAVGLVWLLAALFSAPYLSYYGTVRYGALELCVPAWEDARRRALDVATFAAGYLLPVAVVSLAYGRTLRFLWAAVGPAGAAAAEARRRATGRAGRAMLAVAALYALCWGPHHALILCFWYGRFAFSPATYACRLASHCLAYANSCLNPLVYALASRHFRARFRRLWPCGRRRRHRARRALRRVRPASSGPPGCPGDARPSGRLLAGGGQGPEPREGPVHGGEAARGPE
Kind of assay: Radioligand binding at cloned human GAL3 receptor. The note with it: cloned human receptor, read-out: Ki GalR3. An outline of the steps:
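Membranes from LM(tk-) cells stably expressing human GAL3, prepared in binding buffer (HEPES-based, pH 7.4), used for radioligand binding. Solvent at final assay concentration: 3% DMSO for indolones, 1% ethanol/0.09% pluronic F-127 for pyrimidines. Binding data analysed by nonlinear regression.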

The next assay has as its target T2, human GAL2 receptor (Homo sapiens, UniProt O43603).
T2 construct: expressed in transfected cells
T2 sequence (O43603 1-387): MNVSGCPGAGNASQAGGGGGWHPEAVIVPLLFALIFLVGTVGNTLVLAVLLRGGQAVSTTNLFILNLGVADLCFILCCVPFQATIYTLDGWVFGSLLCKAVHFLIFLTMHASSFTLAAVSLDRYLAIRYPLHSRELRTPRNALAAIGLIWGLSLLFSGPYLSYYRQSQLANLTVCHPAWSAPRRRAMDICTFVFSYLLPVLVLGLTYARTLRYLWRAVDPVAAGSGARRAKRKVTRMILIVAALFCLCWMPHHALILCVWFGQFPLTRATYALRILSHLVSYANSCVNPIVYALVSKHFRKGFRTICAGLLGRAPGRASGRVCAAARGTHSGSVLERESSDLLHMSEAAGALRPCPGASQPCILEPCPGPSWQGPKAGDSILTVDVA
In words: Radioligand binding at cloned human GAL2 receptor. The note with it: pyrimidines, read-out: Ki GalR2. On the procedure: The binding properties of the pyrimidines of the present invention were evaluated at the cloned human galanin receptors, GAL1, GAL2, and GAL3, using protocols described herein.
The binding properties of the indolones of the present invention were evaluated at the cloned human galanin receptors, GAL1, GAL2, and GAL3, using protocols described herein.
LM(tk-) cells were stably transfected with the human GAL1 or GAL3 receptor. CHO cells were stably transfected with the human GAL2 receptor.
cDNAs for the human and rat GAL1, and human and rat GAL3 receptors were transfected with a G-418 resistant gene into the mouse fibroblast LM(tk-) cell line by a calcium phosphate transfection method (Cullen, 1987). Stably transfected cells were selected with G-418. Human and rat GAL2 receptors were similarly transfected into CHO cells.
Membranes were harvested from stably transfected LM(tk-) cells. Adherent cells were washed twice in ice-cold phosphate buffered saline (138 mM NaCl, 8.1 mM Na2HPO4, 2.5 mM KCl, 1.2 mM KH2PO4, 0.9 mM CaCl2, 0.5 mM MgCl2, pH 7.4) and lysed by sonication in ice-cold sonication buffer (20 mM Tris-HCl, 5 mM EDTA, pH 7.7). Large particles and debris were cleared by low speed centrifugation (200 x g, 5 min, 4°C). Membranes were collected from the supernatant fraction by centrifugation (32,000 x g, 18 min, 4°C), washed with ice-cold hypotonic buffer, and collected again by centrifugation (32,000 x g, 18 min, 4°C). The final membrane pellet was resuspended by sonication into a small volume of ice-cold binding buffer (-1 ml for every 5 plates: 10 mM NaCl, 20 mM HEPES, 0.22 mM KH2PO4, 1.26 mM CaCl2, 0.81 mM MgSO4, pH 7.4). Protein concentration was measured by the Bradford method (Bradford, 1976) using Bio-Rad Reagent, with bovine serum albumin as a standard. Membranes were held on ice for up to one hour and used fresh, or flash frozen and stored in liquid nitrogen. Membranes were prepared similarly from CHO cells.
Galanin Recentors: Binding assays were performed according to the following published methods: human GAL3 (PCT International Publication No. WO 98/15570), human GAL1 (PCT International Publication No. WO 95/2260), human GAL2 (PCT International Publication No. WO 97/26853).
Binding data were analyzed using nonlinear regression and statistical techniques available in the GraphPAD Prism package (San Diego, CA). Enzymatic assay data were derived from a standard curve of reference compound data.

The subject of the next assay is Male Sprague-Dawley rats. In words: Rat Forced Swim Test (FST). The format is in vivo. The note with it: for antidepressant profile in the FST (conclusion): overall conclusion of the study. On the procedure: The procedure used in this study was similar to that previously described (Porsolt, et al., 1978), except the water depth (30 cm in this procedure). The greater depth in this test prevented the rats from supporting themselves by touching the bottom of the cylinder with their feet. Swim sessions were conducted by placing rats in individual plexiglass cylinders (46 cm tall x 20 cm in diameter) containing 23-25°C water 30 cm deep (Porsolt, et al. used a depth of only 15 cm; also, see Detke, et al., 1995). Two swim tests were conducted always between 1200 and 1800 hours: an initial 15-min pretest followed 24 h later by a 5-minute test. […] All other test sessions were conducted between 1300 to 1700 hours. Following all swim sessions, rats were removed from the cylinders, dried with paper towels and placed in a heated cage for 15 minutes and returned to their home cages. All test sessions were videotaped using a Panasonic color video camera and recorder for scoring later.
Male Sprague-Dawley rats (Taconic Farms, NY) were used in all experiments. Rats were housed in pairs and maintained on a 12:12-h light-dark cycle. Rats were handled for 5 minutes each day for 5 days prior to behavioral testing.
The rat's behavior was rated at 5 second intervals during the 5 minute test as one of the following: • 1. Immobility- rat remained floating in the water without struggling and was only making those movements necessary to keep its head above water; • 2. Climbing - rat was making active movements with its forepaws in and out of the water, usually directed against the walls; • 3. Swimming - rat was making active swimming motions, more than necessary to merely maintain its head above water, e.g. moving around in the cylinder; and • 4. Diving - entire body of the rat was submerged.
All of the behavior scoring was done by a single rater, who was blind to the treatment condition. The rater was also present in the room throughout the entire test period.
All injections were given using 1 cc tuberculin syringe with 26 3/8 gauge needles (Becton-Dickinson, VWR Scientific, Bridgeport, NJ). The volume of injection was 1 ml/kg.
The drugs were dissolved in 100% N,N-dimethylacetamide. All administrations were given using 1 cc tuberculin syringes, to which a 3 inch, curved, stainless steel gavage needle was attached. The volume of administration was 1 ml/kg.
The compounds were dissolved in 100% N,N-dimethylacetamide. All administrations were given using 1 cc tuberculin syringes, to which a 3 inch, curved, stainless steel gavage needle was attached. The volume of administration was 1 ml/kg.
The forced swim test data (immobility, swimming, climbing, diving) were subjected to a randomized, one-way ANOVA and post hoc tests conducted using the Student-Newman-heuls test. The data were analyzed using the GBSTAT program, version 6.5 (Dynamics Microsystems, Inc., Silver Spring, MD, 1997). All data are presented as means ± S.E.M.

Where [1] appears, read: 5 mg/kg p.o., single administration, 1 hr. before test.
The mark [2] stands for this setting: 10 mg/kg i.p., single injection, 5 minute test.
Where [3] appears, read: 10 mg/kg p.o., single administration 24 hours before the test day.
[4] abbreviates: 1 mg/kg p.o., single administration, 1 hr. before test.
The mark [5] stands for this setting: 3 mg/kg p.o., single administration, 1 hr. before test.
[6] abbreviates: 10 mg/kg p.o., single administration, 1 hr. before test.
The mark [7] stands for this setting: 3 mg/kg p.o., single administration 24 hours before the test day.

Each structure is given as a SMILES string. Where two headings read alike, the source gives them in different places. Marks after values point to notes of the source that are not given here.

For the molecule `Cc1ccc(Nc2cc(N3CCCCC3)nc(N3CCN(c4ccccn4)CC3)n2)cc1` [Example 30], the Ki (in general, the dissociation constant of the complex between target and ligand, obtained from inhibition or displacement) was 197 nM at human GAL3 receptor (pyrimidines) and 2610 nM on human GAL2 receptor.

For the molecule `COc1ccc2[nH]cc(CCNc3nc(Nc4ccc(C)cc4)cc(N4CCCCC4)n3)c2c1` [Example 9], the Ki stood at 568 nM on human GAL3 receptor (pyrimidines) and 2110 nM on human GAL2 receptor.

With `Cc1ccc(Nc2cc(N(C)C)nc(N3CCN(c4ccccc4C)CC3)n2)cc1` [Example 85], the Ki at human GAL3 receptor (pyrimidines) was 72 nM; at human GAL2 receptor, 4230 nM.

For the molecule `Cc1ccc(Nc2cc(N(C)C)nc(N3CCN(c4ccc(C)cc4)CC3)n2)cc1` [Example 87], the figures for the Ki on human GAL3 receptor (pyrimidines) and at human GAL2 receptor were 157 nM and 4620 nM, respectively.

With `CCc1ccccc1N1CCN(c2nc(Nc3ccc(C)cc3)cc(N3CCCCC3)n2)CC1` [Example 26], the Ki on human GAL3 receptor (pyrimidines) came to 85 nM; on human GAL2 receptor it was 4050 nM.

For `CNCCC(Oc1ccc(C(F)(F)F)cc1)c1ccccc1` (stereo not shown) [Fluoxetine, fluoxetine, reference compound], in the assay with Male Sprague-Dawley rats (setting [1]), the Climbing was determined as 1.2 ± 0.4, the Diving was 0.0 ± 0.0, the Immobility is listed as 45 ± 1.3^c and the Swimming was 13.9 ± 1.0. In addition, in the assay with Male Sprague-Dawley rats (setting [2]), the Climbing worked out at 14.3 ± 0.9 counts, the Diving came to 0.1 ± 0.1, the Immobility is 21 ± 0.9^a counts and the Swimming is 25 ± 1.2^b counts. Further, in the assay with Male Sprague-Dawley rats (setting [3]), the Climbing came out at 3.3 ± 0.6, the Diving is listed as 0.2 ± 0.1, the Immobility is given as 35 ± 1.7^a and the Swimming is recorded as 21.4 ± 1.0^b.

As for `CN(C)c1cc(Nc2ccc(Cl)c(Cl)c2)nc(N2CCN(Cc3ccccc3)CC2)n1` [Example 151], at human GAL3 receptor (pyrimidines), the Ki amounted to 11 nM. Besides, in the assay on Male Sprague-Dawley rats (setting [4]), the Climbing is given as 2.3 ± 0.6, the Diving is on record as 0.2 ± 0.2, the Immobility is 41 ± 2.0 and the Swimming is 16.8 ± 1.4^d. In the assay with Male Sprague-Dawley rats (setting [5]), the Climbing is recorded as 2.4 ± 0.5, the Diving was 0.3 ± 0.2, the Immobility is given as 38 ± 2.0^a and the Swimming is recorded as 19.5 ± 1.5^e. Moreover, in the assay with Male Sprague-Dawley rats (setting [6]), the Climbing turned out to be 2.2 ± 0.5, the Diving is reported as 0.3 ± 0.2, the Immobility is given as 39 ± 1.8^b and the Swimming was 18.9 ± 1.5^e. Besides, the “antidepressant profile in the FST (conclusion)” value in the assay on Male Sprague-Dawley rats was “resemble those of antidepressants”.

For `CN(C)c1cc(NC2C3CC4CC(C3)CC2C4)nc(N2CCN(Cc3ccccc3)CC2)n1` (stereo not shown) [Example 168], on human GAL3 receptor (pyrimidines), the Ki was determined as 50 nM.

`Cc1ccc(C)c(Nc2cc(N(C)C)nc(N3CCN(c4ccccn4)CC3)n2)c1` [Example 213]: at human GAL3 receptor (pyrimidines), the Ki was 165 nM.

As to `Cc1ccc(Nc2cc(N(C)C)nc(NCCCc3ccccc3)n2)cc1` [Example 162], the Ki at human GAL3 receptor (pyrimidines) was 42 nM.

`CN(C)c1cc(Nc2ccc(F)cc2)nc(N2CCN(Cc3ccccc3)CC2)n1` [Example 156]: the Ki on human GAL3 receptor (pyrimidines) is 61 nM.

On to `Cc1ccc(Nc2cc(N(C)C)nc(N3CCN(c4ncccc4C#N)CC3)n2)cc1` [Example 241], for which, at human GAL3 receptor (pyrimidines), the inhibition constant Ki came to 261 nM.

For `COc1ccc2c(c1)N(c1ccccc1)C(=O)/C2=N\c1ccc(Cl)c(Cl)c1` [Example 258, (3Z)-3-[(3,4-DICHLOROPHENYL)IMINO]-6-METHOXY-1-PHENYL-1,3-DIHYDRO-2H-INDOL-2-ONE], the Ki on human GAL3 receptor (indolones) amounted to 67 nM.

Regarding `Cc1ccc(Nc2cc(N(C)C)nc(N3CCN(c4ccccn4)CC3)n2)c(Cl)c1` [Example 223], at human GAL3 receptor (pyrimidines), the Ki was found to be 559 nM.

For the molecule `O=C1/C(=N\c2ccc(Cl)c(Cl)c2)c2ccccc2N1Cc1ccccn1` [Example 254], the Ki at human GAL3 receptor (indolones) was determined as 64 nM.

Consider `O=C1/C(=N\c2cccc(C(F)(F)F)c2)c2ccccc2N1c1ccc(-c2ccccc2)cc1` [Example 309, (3Z)-1-[1,1'-BIPHENYL]-4-YL-3-{[3-(TRIFLUOROMETHYL)PHENYL]IMINO}-1,3-DIHYDRO-2H-INDOL-2-ONE], for which, on human GAL3 receptor (indolones), the Ki came out at 224 nM.

In the case of `COc1cccc(Nc2cc(N(C)C)nc(N(C)CCc3ccccc3)n2)c1` [Example 251], the Ki at human GAL3 receptor (pyrimidines) came out at 54 nM.

Turning to `O=C1/C(=N\c2ccc(Cl)c(Cl)c2)c2ccccc2N1c1ccsc1` [Example 272, (3Z)-3-[(3,4-DICHLOROPHENYL)IMINO]-1-(3-THIENYL)-1,3-DIHYDRO-2H-INDOL-2-ONE], on human GAL3 receptor (indolones), the Ki stood at 26 nM. Besides, in the assay on Male Sprague-Dawley rats (setting [7]), the Climbing worked out at 3.9 ± 0.6, the Diving is reported as 0.6 ± 0.4, the Immobility is recorded as 33 ± 1.8^a and the Swimming is given as 22.9 ± 1.3^b. In addition, the “antidepressant profile in the FST (conclusion)” value in the assay with Male Sprague-Dawley rats is “has the profile of an antidepressant”.

As to `CN(C)c1cc(NC2CCCCCCC2)nc(N2CCN(Cc3ccccc3)CC2)n1` [Example 170], at human GAL3 receptor (pyrimidines), the Ki stood at 91 nM.

For the molecule `CC(C)c1cccc(Nc2cc(N(C)C)nc(N3CCN(c4ccccn4)CC3)n2)c1` [Example 191], the Ki at human GAL3 receptor (pyrimidines) came out at 75 nM.

With `COc1cccc(Nc2cc(N(C)C)nc(N3CCN(c4ccc(Br)cn4)CC3)n2)c1` [Example 143], the Ki on human GAL3 receptor (pyrimidines) was determined as 144 nM.
